ChEMBL document CHEMBL4665668, “Design and development of molecular hybrids of 2-pyridylpiperazine and 5-phenyl-1,3,4-oxadiazoles as potential multifunctional agents to treat Alzheimer's disease” (Eur J Med Chem, 2019)
Activity calls are given as the source filed them. The rule behind the calls is not given here.

System: Rattus norvegicus
Experiment: Ex vivo inhibition of AChE in brain of scopolamine-induced Wistar rat model of amnesia at 5 to 10 mg/kg, po pretreated for 7 days followed by scopolamine challenge and measured after 30 mins using acetylthiocholine iodide as substrate by Ellman's method
Type: functional, organism-based
Conditions: dose mg/kg 5-10, time 7.0 day

| Compound | inhibition |
| --- | --- |
| Fc1ccc(-c2nnc(N3CCN(c4ccccn4)CC3)o2)c(F)c1 | Active |

System: Rattus norvegicus
Experiment: Antioxidant activity in scopolamine-induced Wistar rat model of amnesia assessed as decrease in MDA level at 2.5 to 10 mg/kg, po pretreated for 7 days followed by scopolamine challenge and measured after 30 mins […]
Type: functional, organism-based
Conditions: dose mg/kg 2.5-10, time 7.0 day

| Compound | Activity |
| --- | --- |
| Fc1ccc(-c2nnc(N3CCN(c4ccccn4)CC3)o2)c(F)c1 | Active |

System: Rattus norvegicus
Experiment: Antioxidant activity in scopolamine-induced Wistar rat model of amnesia assessed as increase in SOD level at 2.5 to 10 mg/kg, po pretreated for 7 days followed by scopolamine challenge and measured after 30 mins […]
Type: functional, organism-based
Conditions: dose mg/kg 2.5-10, time 7.0 day

| Compound | Activity |
| --- | --- |
| Fc1ccc(-c2nnc(N3CCN(c4ccccn4)CC3)o2)c(F)c1 | Active |

Target: Beta-secretase 1 (Homo sapiens, UniProt P56817)
Experiment: Inhibition of human BACE-1 using MOCA-SEV-NL-DAEFR-DNP-RR as substrate preincubated with substrate followed by enzyme addition by FRET assay
Conditions: not given

Chain of Beta-secretase 1 (P56817 whole entry): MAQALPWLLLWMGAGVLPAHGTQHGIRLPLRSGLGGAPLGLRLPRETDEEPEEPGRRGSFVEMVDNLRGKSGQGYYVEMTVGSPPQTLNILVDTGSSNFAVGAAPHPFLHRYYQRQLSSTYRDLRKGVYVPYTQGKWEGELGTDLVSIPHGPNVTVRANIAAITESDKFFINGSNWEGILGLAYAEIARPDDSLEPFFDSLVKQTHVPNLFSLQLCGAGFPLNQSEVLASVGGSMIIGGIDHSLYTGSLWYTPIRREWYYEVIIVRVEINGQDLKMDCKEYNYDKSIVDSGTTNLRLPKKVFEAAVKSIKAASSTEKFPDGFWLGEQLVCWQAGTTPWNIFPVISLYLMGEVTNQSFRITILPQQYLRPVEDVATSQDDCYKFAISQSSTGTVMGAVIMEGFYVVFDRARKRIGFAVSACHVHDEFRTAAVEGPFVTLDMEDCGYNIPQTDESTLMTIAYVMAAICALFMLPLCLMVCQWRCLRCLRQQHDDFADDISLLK

| Compound | IC50 [µM] |
| --- | --- |
| O=C(N/N=C/c1ccc(Cl)cc1)N1CCN(c2ccccn2)CC1 | 2.96 |
| FC(F)(F)c1ccc(-c2nnc(N3CCN(c4ccccn4)CC3)o2)cc1 | 0.465 |
| Cc1cccc(-c2nnc(N3CCN(c4ccccn4)CC3)o2)c1 | 2.64 |
| Cc1cccc(/C=N/NC(=O)N2CCN(c3ccccn3)CC2)c1 | 4.37 |
| COc1cc(/C=N/NC(=O)N2CCN(c3ccccn3)CC2)cc(OC)c1OC | 4.64 |
| c1ccc(-c2nnc(N3CCN(c4ccccn4)CC3)o2)cc1 | 3.22 |
| COc1cc(-c2nnc(N3CCN(c4ccccn4)CC3)o2)cc(OC)c1OC | 3.24 |
| O=C(N/N=C/c1ccc(O)cc1)N1CCN(c2ccccn2)CC1 | 4.68 |
| O=C(N/N=C/c1ccc(C(F)(F)F)cc1)N1CCN(c2ccccn2)CC1 | 1.82 |
| Oc1ccc(-c2nnc(N3CCN(c4ccccn4)CC3)o2)cc1 | 1.78 |
| Oc1ccc(-c2nnc(N3CCN(c4ccccn4)CC3)o2)c(O)c1 | 0.382 |
| Oc1ccccc1-c1nnc(N2CCN(c3ccccn3)CC2)o1 | 2.23 |
| COc1cccc(/C=N/NC(=O)N2CCN(c3ccccn3)CC2)c1OC | 6.82 |
| O=C(N/N=C/c1ccc(F)cc1F)N1CCN(c2ccccn2)CC1 | 0.446 |

Target: Cholinesterase (Homo sapiens, UniProt P06276)
Experiment: Inhibition of human serum BChE using butyrylthiocholine iodide as substrate preincubated for 10 mins followed by substrate addition by Ellman's method
Type: cell-free
Conditions: not given

Chain of Cholinesterase (P06276 whole entry): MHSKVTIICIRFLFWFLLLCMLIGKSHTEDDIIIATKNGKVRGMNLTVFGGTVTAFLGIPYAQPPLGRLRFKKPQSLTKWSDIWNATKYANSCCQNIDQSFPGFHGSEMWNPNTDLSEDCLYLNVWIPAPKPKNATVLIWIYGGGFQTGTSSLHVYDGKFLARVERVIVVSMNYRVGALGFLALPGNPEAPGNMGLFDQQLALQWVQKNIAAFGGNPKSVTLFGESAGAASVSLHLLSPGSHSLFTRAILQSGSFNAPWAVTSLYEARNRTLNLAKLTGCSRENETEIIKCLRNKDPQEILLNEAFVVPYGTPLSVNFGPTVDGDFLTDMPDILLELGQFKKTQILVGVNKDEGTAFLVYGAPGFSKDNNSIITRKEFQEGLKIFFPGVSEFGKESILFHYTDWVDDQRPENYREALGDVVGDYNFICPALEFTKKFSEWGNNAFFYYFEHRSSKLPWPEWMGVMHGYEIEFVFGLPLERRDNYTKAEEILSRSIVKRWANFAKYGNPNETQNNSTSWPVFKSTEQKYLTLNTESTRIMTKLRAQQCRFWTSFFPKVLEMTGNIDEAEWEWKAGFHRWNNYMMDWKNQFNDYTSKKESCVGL

| Compound | IC50 [µM] |
| --- | --- |
| O=C(N/N=C/c1ccc(Cl)cc1)N1CCN(c2ccccn2)CC1 | 4.82 |
| FC(F)(F)c1ccc(-c2nnc(N3CCN(c4ccccn4)CC3)o2)cc1 | 2.12 |
| Cc1cccc(-c2nnc(N3CCN(c4ccccn4)CC3)o2)c1 | > 10 |
| Cc1cccc(/C=N/NC(=O)N2CCN(c3ccccn3)CC2)c1 | > 10 |
| COc1cc(/C=N/NC(=O)N2CCN(c3ccccn3)CC2)cc(OC)c1OC | 4.68 |
| c1ccc(-c2nnc(N3CCN(c4ccccn4)CC3)o2)cc1 | 3.27 |
| COc1cc(-c2nnc(N3CCN(c4ccccn4)CC3)o2)cc(OC)c1OC | 3.64 |
| O=C(N/N=C/c1ccc(O)cc1)N1CCN(c2ccccn2)CC1 | 6.15 |
| Fc1ccc(-c2nnc(N3CCN(c4ccccn4)CC3)o2)c(F)c1 | 0.787 |
| O=C(N/N=C/c1ccc(C(F)(F)F)cc1)N1CCN(c2ccccn2)CC1 | 4.04 |
| Oc1ccc(-c2nnc(N3CCN(c4ccccn4)CC3)o2)cc1 | 6.02 |
| Oc1ccc(-c2nnc(N3CCN(c4ccccn4)CC3)o2)c(O)c1 | 3.29 |
| Oc1ccccc1-c1nnc(N2CCN(c3ccccn3)CC2)o1 | 8.22 |
| COc1cccc(/C=N/NC(=O)N2CCN(c3ccccn3)CC2)c1OC | > 10 |
| O=C(N/N=C/c1ccc(F)cc1F)N1CCN(c2ccccn2)CC1 | 3.97 |

Target: T1, Acetylcholinesterase (Homo sapiens, UniProt P22303)
Experiment: Inhibition of human erythrocytes AChE using acetylthiocholine iodide as substrate preincubated for 10 mins followed by substrate addition by Ellman's method
Type: tissue-based, Erythrocyte
Conditions: not given

T1 sequence (P22303 whole entry): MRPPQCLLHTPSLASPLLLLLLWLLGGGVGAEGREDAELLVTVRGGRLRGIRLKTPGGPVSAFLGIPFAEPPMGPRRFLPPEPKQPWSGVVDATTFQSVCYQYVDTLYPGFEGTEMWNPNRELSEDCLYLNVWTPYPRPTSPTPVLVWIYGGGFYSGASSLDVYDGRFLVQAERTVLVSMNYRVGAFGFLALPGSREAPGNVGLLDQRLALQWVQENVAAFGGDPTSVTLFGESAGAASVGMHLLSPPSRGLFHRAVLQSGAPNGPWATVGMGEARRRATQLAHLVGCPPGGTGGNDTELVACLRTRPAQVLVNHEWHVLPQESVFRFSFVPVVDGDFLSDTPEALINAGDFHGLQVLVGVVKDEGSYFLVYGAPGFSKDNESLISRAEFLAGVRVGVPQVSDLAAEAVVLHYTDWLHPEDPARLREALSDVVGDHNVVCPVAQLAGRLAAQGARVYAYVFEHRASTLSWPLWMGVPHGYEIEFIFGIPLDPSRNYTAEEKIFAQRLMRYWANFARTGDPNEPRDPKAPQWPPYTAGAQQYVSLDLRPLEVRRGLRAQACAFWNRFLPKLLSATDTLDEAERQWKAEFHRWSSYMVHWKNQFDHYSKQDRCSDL

| Compound | IC50 [µM] |
| --- | --- |
| O=C(N/N=C/c1ccc(Cl)cc1)N1CCN(c2ccccn2)CC1 | 3.42 |
| FC(F)(F)c1ccc(-c2nnc(N3CCN(c4ccccn4)CC3)o2)cc1 | 0.182 |
| Cc1cccc(-c2nnc(N3CCN(c4ccccn4)CC3)o2)c1 | 5.24 |
| Cc1cccc(/C=N/NC(=O)N2CCN(c3ccccn3)CC2)c1 | > 10 |
| COc1cc(/C=N/NC(=O)N2CCN(c3ccccn3)CC2)cc(OC)c1OC | 5.69 |
| c1ccc(-c2nnc(N3CCN(c4ccccn4)CC3)o2)cc1 | 0.341 |
| COc1cc(-c2nnc(N3CCN(c4ccccn4)CC3)o2)cc(OC)c1OC | 0.222 |
| O=C(N/N=C/c1ccc(O)cc1)N1CCN(c2ccccn2)CC1 | 4.81 |
| O=C(N/N=C/c1ccc(C(F)(F)F)cc1)N1CCN(c2ccccn2)CC1 | 1.32 |
| Oc1ccc(-c2nnc(N3CCN(c4ccccn4)CC3)o2)cc1 | 1.18 |
| Oc1ccc(-c2nnc(N3CCN(c4ccccn4)CC3)o2)c(O)c1 | 1.34 |
| Oc1ccccc1-c1nnc(N2CCN(c3ccccn3)CC2)o1 | 1.23 |
| COc1cccc(/C=N/NC(=O)N2CCN(c3ccccn3)CC2)c1OC | > 10 |
| O=C(N/N=C/c1ccc(F)cc1F)N1CCN(c2ccccn2)CC1 | 0.682 |

Target: T1, Acetylcholinesterase
Experiment: Mixed type inhibition of human erythrocytes AChE using varying levels of acetylthiocholine iodide substrate by Dixon plot analysis
Type: tissue-based, Erythrocyte
Conditions: not given

| Compound | Ki [µM] |
| --- | --- |
| Fc1ccc(-c2nnc(N3CCN(c4ccccn4)CC3)o2)c(F)c1 | 0.03 |

Target: T1, Acetylcholinesterase
Experiment: Mixed type inhibition of human erythrocytes AChE assessed as decrease in Vmax using varying levels of acetylthiocholine iodide substrate by Lineweaver-Burk plot analysis
Conditions: Erythrocyte

| Compound | inhibition |
| --- | --- |
| Fc1ccc(-c2nnc(N3CCN(c4ccccn4)CC3)o2)c(F)c1 | Active |

Target: T1, Acetylcholinesterase
Experiment: Mixed type inhibition of human erythrocytes AChE assessed as increase in Km using varying levels of acetylthiocholine iodide substrate by Lineweaver-Burk plot analysis
Type: tissue-based
Conditions: Erythrocyte

| Compound | inhibition |
| --- | --- |
| Fc1ccc(-c2nnc(N3CCN(c4ccccn4)CC3)o2)c(F)c1 | Active |

System: not listed separately
Experiment: Permeability of the compound in PBS/EtOH buffer (7:3) at 25 ug/ml after 18 hrs by PAMPA-BBB assay
Conditions: not given

| Compound | Papp at 18 h, 25 ug/ml [×10⁻⁶ cm/s] |
| --- | --- |
| FC(F)(F)c1ccc(-c2nnc(N3CCN(c4ccccn4)CC3)o2)cc1 | 6.3 |
| Fc1ccc(-c2nnc(N3CCN(c4ccccn4)CC3)o2)c(F)c1 | 6.1 |
| O=C(N/N=C/c1ccc(F)cc1F)N1CCN(c2ccccn2)CC1 | 4.1 |

Target: Amyloid-beta precursor protein (Homo sapiens) (UniProt P05067)
Experiment: Inhibition of amyloid beta (1 to […]) (unknown origin) self-induced aggregation after 48 hrs by Thioflavin T based fluorometric assay
Conditions: dose microM 5-20, time 48.0 hrs

Chain of Amyloid-beta precursor protein (Homo sapiens) (P05067 whole entry): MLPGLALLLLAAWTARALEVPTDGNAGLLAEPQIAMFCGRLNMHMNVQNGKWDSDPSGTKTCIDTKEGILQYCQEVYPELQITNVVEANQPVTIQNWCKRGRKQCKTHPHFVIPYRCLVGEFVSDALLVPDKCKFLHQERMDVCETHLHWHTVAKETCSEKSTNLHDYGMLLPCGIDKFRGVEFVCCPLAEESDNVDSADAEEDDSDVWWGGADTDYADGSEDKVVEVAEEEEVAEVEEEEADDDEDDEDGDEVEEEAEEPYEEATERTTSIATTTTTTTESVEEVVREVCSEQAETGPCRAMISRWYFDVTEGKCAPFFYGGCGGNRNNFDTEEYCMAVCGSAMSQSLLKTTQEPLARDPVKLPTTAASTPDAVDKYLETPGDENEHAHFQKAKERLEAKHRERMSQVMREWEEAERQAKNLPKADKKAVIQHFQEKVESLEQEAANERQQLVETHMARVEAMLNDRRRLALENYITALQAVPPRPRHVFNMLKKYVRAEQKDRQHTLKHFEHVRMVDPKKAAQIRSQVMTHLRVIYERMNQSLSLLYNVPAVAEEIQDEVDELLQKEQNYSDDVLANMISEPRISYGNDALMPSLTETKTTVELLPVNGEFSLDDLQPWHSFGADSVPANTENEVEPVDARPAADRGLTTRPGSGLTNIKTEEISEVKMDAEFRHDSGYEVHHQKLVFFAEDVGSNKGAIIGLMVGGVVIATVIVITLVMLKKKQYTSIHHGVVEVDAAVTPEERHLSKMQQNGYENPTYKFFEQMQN

| Compound | inhibition |
| --- | --- |
| Fc1ccc(-c2nnc(N3CCN(c4ccccn4)CC3)o2)c(F)c1 | Active |

System: SH-SY5Y
Experiment: Neuroprotective activity against amyloid beta (1 to 42)-induced oxidative stress in human SH-SY5Y cells assessed as effect on cell viability at 10 to 80 uM measured after 24 hrs by MTT assay (reference value: 61 %)
Type: functional
Conditions: dose microM 10-80

| Compound | Activity [%] |
| --- | --- |
| Fc1ccc(-c2nnc(N3CCN(c4ccccn4)CC3)o2)c(F)c1 | 69 |

System: not listed separately
Experiment: Acute toxicity in Wistar rat assessed as abnormal signs at 100 to 500 mg/kg, po measured up to 14 days by OCED guideline method
Type: organism-based
Conditions: in vivo, 336 h, dose 100-500 mg/kg, time 14 day

| Compound | Activity |
| --- | --- |
| Fc1ccc(-c2nnc(N3CCN(c4ccccn4)CC3)o2)c(F)c1 | Non-Toxic |

System: not listed separately
Experiment: Acute toxicity in po dosed Wistar rat assessed as maximum tolerated dose by OCED guideline method
Type: organism-based
Conditions: in vivo

| Compound | MTD [mg/kg] |
| --- | --- |
| Fc1ccc(-c2nnc(N3CCN(c4ccccn4)CC3)o2)c(F)c1 | 100 |

System: Rattus norvegicus
Experiment: Cognitive enhancing effect in scopolamine-induced Wistar rat model of amnesia assessed as increase in spontaneous alteration at 5 to 10 mg/kg, po pretreated for 7 days followed by scopolamine challenge and measured after 30 mins by Y-maze test
Type: functional, organism-based
Conditions: dose mg/kg 5-10, time 7.0 day

| Compound | Activity |
| --- | --- |
| Fc1ccc(-c2nnc(N3CCN(c4ccccn4)CC3)o2)c(F)c1 | Active |

System: Rattus norvegicus
Experiment: Cognitive enhancing effect in po dosed scopolamine-induced Wistar rat model of amnesia assessed as increase in spontaneous alteration pretreated for 7 days followed by scopolamine challenge and measured after 30 mins by Y-maze test
Type: functional, organism-based
Conditions: dose mg/kg 2.5-10, time 7.0 day

| Compound | Activity |
| --- | --- |
| Fc1ccc(-c2nnc(N3CCN(c4ccccn4)CC3)o2)c(F)c1 | Dose-dependent effect |

System: Rattus norvegicus
Experiment: (§1) Improvement in learning and spatial memory in icv infused amyloid beta (1 to 42)-induced rat model of Alzheimer's disease assessed as reduction in escape latency at 10 mg/kg, po administered daily for 7 days starting from 7 days post surgery and measured daily for 5 days by Morris water maze test
Type: functional, organism-based
Conditions: time 12.0 day

| Compound | Activity |
| --- | --- |
| Fc1ccc(-c2nnc(N3CCN(c4ccccn4)CC3)o2)c(F)c1 | Active |

System: Rattus norvegicus
Experiment: as §1, with “increase” for “reduction”, “number of platform crossing” for “escape latency”, “after 6” for “daily for 5”
Type: functional, organism-based
Conditions: time 13.0 day

| Compound | Activity |
| --- | --- |
| Fc1ccc(-c2nnc(N3CCN(c4ccccn4)CC3)o2)c(F)c1 | Active |

System: not listed separately
Experiment: Cmax in Wistar rat at 10 mg/kg, po measured up to 72 hrs by HPLC analysis
Type: ADME, organism-based
Set-up: route oral, time 72 hrs, dose 10 mg/kg
Conditions: in vivo

| Compound | Cmax [ng/mL] |
| --- | --- |
| Fc1ccc(-c2nnc(N3CCN(c4ccccn4)CC3)o2)c(F)c1 | 49.8 |

System: not listed separately
Experiment: Tmax in Wistar rat at 10 mg/kg, po measured up to 72 hrs by HPLC analysis
Type: ADME, organism-based
Conditions: in vivo

| Compound | Tmax [h] |
| --- | --- |
| Fc1ccc(-c2nnc(N3CCN(c4ccccn4)CC3)o2)c(F)c1 | 5.33 |

System: not listed separately
Experiment: AUC (0 to 24 hrs) in Wistar rat at 10 mg/kg, po measured up to 72 hrs by HPLC analysis
Type: ADME, organism-based
Set-up: route oral, dose 10 mg/kg, time 72 hrs
Conditions: in vivo

| Compound | AUC(0-t) at 72 h [ng·h/mL] |
| --- | --- |
| Fc1ccc(-c2nnc(N3CCN(c4ccccn4)CC3)o2)c(F)c1 | 721 |

System: not listed separately
Experiment: Half life in Wistar rat at 10 mg/kg, po measured up to 72 hrs by HPLC analysis
Type: ADME, organism-based
Conditions: in vivo

| Compound | half-life [h] |
| --- | --- |
| Fc1ccc(-c2nnc(N3CCN(c4ccccn4)CC3)o2)c(F)c1 | 12.3 |

System: not listed separately
Experiment: MRT in Wistar rat at 10 mg/kg, po measured up to 72 hrs by HPLC analysis
Type: ADME, organism-based
Conditions: in vivo

| Compound | MRT [h] |
| --- | --- |
| Fc1ccc(-c2nnc(N3CCN(c4ccccn4)CC3)o2)c(F)c1 | 18.4 |

Target: Amyloid-beta precursor protein (Homo sapiens) (UniProt P05067)
Experiment: Inhibition of amyloid beta (unknown origin) self aggregation assessed as maximum peak height at 10 uM after 10 days by atomic force microscopy
Conditions: time 10.0 day

| Compound | Activity [nm] |
| --- | --- |
| Fc1ccc(-c2nnc(N3CCN(c4ccccn4)CC3)o2)c(F)c1 | 44.2 |

Target: Amyloid-beta precursor protein (Homo sapiens) (UniProt P05067)
Experiment: Inhibition of amyloid beta (unknown origin) self aggregation assessed as roughness index at 10 uM after 10 days by atomic force microscopy
Conditions: time 10.0 day

| Compound | Activity [nm] |
| --- | --- |
| Fc1ccc(-c2nnc(N3CCN(c4ccccn4)CC3)o2)c(F)c1 | 1.84 |

Target: Amyloid-beta precursor protein (Homo sapiens) (UniProt P05067)
Conditions: dose microM 5-20, time 48.0 hrs

| Compound | Flu intensity |
| --- | --- |
| Fc1ccc(-c2nnc(N3CCN(c4ccccn4)CC3)o2)c(F)c1 | 0.3 |

Target: T1, Acetylcholinesterase
Conditions: dose microM 5-20, time 48.0 hrs

| Compound | Flu intensity |
| --- | --- |
| Fc1ccc(-c2nnc(N3CCN(c4ccccn4)CC3)o2)c(F)c1 | 0.33 |
